Data reported in US20240279236A1, “COMPOUNDS AND METHODS OF TREATING TUBERCULOSIS” (Fimbrion Therapeutics, Inc., priority 2021, published 2024).

Test system: WT Mtb Erdman strain
Assay: Microplate Alamar Blue Assay (MABA), Mtb growth inhibition
Type: cell-based, Mycobacterium tuberculosis
Conditions: Mycobacterium tuberculosis, ERDMAN, 168 h, Middlebrook 7H9 media, 7 days at 37° C. in 5% CO2

`CCc1nc(N[C@@H]2C[C@H]2c2ccccc2)c2cc(C)sc2n1` (racemic) [Example 1, 2-ethyl-6-methyl-N-((rac-1S,2R)-2-phenylcyclopropyl) thieno[2,3-d]pyrimidin-4-amine] was tested, and the IC50 was 240 nM.
With `CCc1nc(NC[C@@H]2C[C@H]2c2ccccc2)c2cc(C)sc2n1` (racemic) [Example 84, 2-ethyl-6-methyl-N-(((1S,2S)-2-phenylcyclopropyl)methyl)thieno[2,3-d]pyrimidin-4-amine] the IC50 was 7700 nM.
With `CCc1nc(N[C@@H]2C[C@H]2c2ccccc2)c2ccsc2n1` (racemic) [Example 175, 2-ethyl-N-((rac-1R,2S)-2-phenylcyclopropyl) thieno[2,3-d]pyrimidin-4-amine] the IC50 was < 240 nM.
For `CCc1nc(N[C@H]2C[C@@H]2c2ccccc2)c2cc(C)sc2n1` [Example 2, 2-ethyl-6-methyl-N-((1S,2R)-2-phenylcyclopropyl) thieno[2,3-d]pyrimidin-4-amine], the IC50 was 3100 nM.
Work on `CCc1nc(NCCCc2ccc(C(F)(F)F)cc2)c2cc(C)sc2n1` [Example 3, 2-ethyl-6-methyl-N-(3-(4-(trifluoromethyl)phenyl)propyl)thieno [2,3-d]pyrimidin-4-amine] yielded an IC50 of 280 nM.
`CCc1nc(N[C@@H]2C[C@H]2c2ccc(F)c(F)c2)c2cc(C)sc2n1` [Example 4, N-((1R,2S)-2-(3,4-difluorophenyl)cyclopropyl)-2-ethyl-6-methylthieno[2,3-d]pyrimidin-4-amine] showed an IC50 of 300 nM.
With `CCc1nc(NC2CC(c3ccccc3)C2)c2cc(C)sc2n1` (centres unmarked) [Example 5, 2-ethyl-6-methyl-N-(3-phenylcyclobutyl) thieno[2,3-d]pyrimidin-4-amine] the IC50 was 2100 nM.
`CCc1nc(N[C@@H]2C[C@H]2c2ccccc2)c2cc(C)sc2n1` [Example 6, 2-ethyl-6-methyl-N-((1R,2S)-2-phenylcyclopropyl) thieno[2,3-d]pyrimidin-4-amine] was tested, and the IC50 was 440 nM.
Compound `CCc1nc(NCCc2ccc(Cl)cc2)c2cc(C)sc2n1` [Example 7, N-(4-chlorophenethyl)-2-ethyl-6-methylthieno[2,3-d]pyrimidin-4-amine] has an IC50 of 1100 nM.
Work on `CCc1nc(NCCc2cccc(Cl)c2)c2cc(C)sc2n1` [Example 8, N-(3-chlorophenethyl)-2-ethyl-6-methylthieno[2,3-d]pyrimidin-4-amine] yielded an IC50 of 690 nM.
For `CCc1nc(NCCc2ccccc2Cl)c2cc(C)sc2n1` [Example 9, N-(2-chlorophenethyl)-2-ethyl-6-methylthieno[2,3-d]pyrimidin-4-amine], the IC50 was 2000 nM.
`CCc1nc(NCCc2ccc3ccccc3c2)c2cc(C)sc2n1` [Example 10, 2-ethyl-6-methyl-N-(2-(naphthalen-2-yl)ethyl)thieno[2,3-d]pyrimidin-4-amine] gave an IC50 of 450 nM.
Compound `CCc1nc(NCCOc2ccccc2)c2cc(C)sc2n1` [Example 11, 2-ethyl-6-methyl-N-(2-phenoxyethyl)thieno [2,3-d]pyrimidin-4-amine] has an IC50 of 2800 nM.
`CCc1nc(NCCc2ccncc2)c2cc(C)sc2n1` [Example 12, 2-ethyl-6-methyl-N-(2-(pyridin-4-yl)ethyl)thieno[2,3-d]pyrimidin-4-amine] was tested, and the IC50 was > 10000 nM.
In the case of `CCc1nc(NCCc2cccnc2)c2cc(C)sc2n1` [Example 13, 2-ethyl-6-methyl-N-(2-(pyridin-3-yl)ethyl)thieno[2,3-d]pyrimidin-4-amine], the IC50 is reported as > 10000 nM.
In the case of `CCc1nc(NCCc2ccccn2)c2cc(C)sc2n1` [Example 14, 2-ethyl-6-methyl-N-(2-(pyridin-2-yl)ethyl)thieno[2,3-d]pyrimidin-4-amine], the IC50 is reported as > 10000 nM.
For `CCc1nc(NCCc2ccc(OC)cc2)c2cc(C)sc2n1` [Example 15, 2-ethyl-N-(4-methoxyphenethyl)-6-methylthieno[2,3-d]pyrimidin-4-amine], the IC50 was 2100 nM.
`CCc1nc(NCCc2ccc([N+](=O)[O-])cc2)c2cc(C)sc2n1` [Example 16, 2-ethyl-6-methyl-N-(4-nitrophenethyl)thieno [2,3-d]pyrimidin-4-amine] was tested, and the IC50 was 9000 nM.
Work on `CCc1nc(N(C)CCCc2ccccc2)c2cc(C)sc2n1` [Example 17, 2-ethyl-N,6-dimethyl-N-(3-phenylpropyl)thieno [2,3-d]pyrimidin-4-amine] yielded an IC50 of 7600 nM.
`CCc1nc(NCCCc2ccc(OC)cc2)c2cc(C)sc2n1` [Example 18, 2-ethyl-N-(3-(4-methoxyphenyl)propyl)-6-methylthieno[2,3-d]pyrimidin-4-amine] was tested, and the IC50 was 60 nM.
`CCc1nc(NCCc2ccc(C(F)(F)F)cc2)c2cc(C)sc2n1` [Example 19, 2-ethyl-6-methyl-N-(4-(trifluoromethyl)phenethyl)thieno[2,3-d]pyrimidin-4-amine] was tested, and the IC50 was 2900 nM.
In the case of `CCc1nc(NCCc2cccc(C(F)(F)F)c2)c2cc(C)sc2n1` [Example 20, 2-ethyl-6-methyl-N-(3-(trifluoromethyl)phenethyl)thieno[2,3-d]pyrimidin-4-amine], the IC50 is reported as 4900 nM.
In the case of `CCc1nc(NCCc2ccccc2C(F)(F)F)c2cc(C)sc2n1` [Example 21, 2-ethyl-6-methyl-N-(2-(trifluoromethyl)phenethyl)thieno[2,3-d]pyrimidin-4-amine], the IC50 is reported as > 10000 nM.
Work on `CCc1nc(NCCCc2ccc(OC)c(OC)c2)c2cc(C)sc2n1` [Example 22, N-(3-(3,4-dimethoxyphenyl)propyl)-2-ethyl-6-methylthieno[2,3-d]pyrimidin-4-amine] yielded an IC50 of 770 nM.
For `CCc1nc(NC(C)CCc2ccccc2)c2cc(C)sc2n1` (centres unmarked) [Example 23, 2-ethyl-6-methyl-N-(4-phenylbutan-2-yl)thieno[2,3-d]pyrimidin-4-amine], the IC50 was 8300 nM.
In the case of `CCc1nc(NCCCc2ccco2)c2cc(C)sc2n1` [Example 24, 2-ethyl-N-(3-(furan-2-yl)propyl)-6-methylthieno[2,3-d]pyrimidin-4-amine], the IC50 is reported as 1000 nM.
With `CCc1nc(NCCCCc2ccccc2)c2cc(C)sc2n1` [Example 25, 2-ethyl-6-methyl-N-(4-phenylbutyl)thieno [2,3-d]pyrimidin-4-amine] the IC50 was 120 nM.
With `CCc1nc(NCCc2ccc(-c3ccccc3)cc2)c2cc(C)sc2n1` [Example 26, N-(2-([1,1′-biphenyl]-4-yl)ethyl)-2-ethyl-6-methylthieno[2,3-d]pyrimidin-4-amine] the IC50 was 1200 nM.
In the case of `CCc1nc(NCCCn2cccc2)c2cc(C)sc2n1` [Example 27, N-(3-(1H-pyrrol-1-yl)propyl)-2-ethyl-6-methylthieno[2,3-d]pyrimidin-4-amine], the IC50 is reported as 210 nM.
`Cc1cc2c(N[C@@H]3C[C@H]3c3ccc(F)c(F)c3)nc(C(F)(F)F)nc2s1` [Example 28, N-((1R,2S)-2-(3,4-difluorophenyl)cyclopropyl)-6-methyl-2-(trifluoromethyl) thieno [2,3-d]pyrimidin-4-amine] showed an IC50 of 2100 nM.
`COc1ccc(CCCNc2nc(-c3ccccn3)nc3sccc23)cc1` [Example 29, N-(3-(4-methoxyphenyl)propyl)-2-(pyridin-2-yl)thieno[2,3-d]pyrimidin-4-amine] was tested, and the IC50 was 2300 nM.
`FC(F)(F)c1ccc(CCCNc2nc(-c3ccccn3)nc3sccc23)cc1` [Example 30, 2-(pyridin-2-yl)-N-(3-(4-(trifluoromethyl)phenyl)propyl)thieno[2,3-d]pyrimidin-4-amine] showed an IC50 of 2200 nM.
In the case of `Fc1ccc([C@@H]2C[C@H]2Nc2nc(-c3ccccn3)nc3sccc23)cc1F` [Example 31, N-((1R,2S)-2-(3,4-difluorophenyl)cyclopropyl)-2-(pyridin-2-yl)thieno[2,3-d]pyrimidin-4-amine], the IC50 is reported as 7100 nM.
`Fc1ccc([C@@H]2C[C@H]2Nc2nc(-c3ccccn3)nc3sc(Cl)cc23)cc1F` [Example 32, 6-chloro-N-((1R,2S)-2-(3,4-difluorophenyl)cyclopropyl)-2-(pyridin-2-yl)thieno[2,3-d]pyrimidin-4-amine] showed an IC50 of 3500 nM.
With `Cc1cc2c(N[C@@H]3C[C@H]3c3ccc(F)c(F)c3)nc(-c3ccccn3)nc2s1` [Example 33, N-((1R,2S)-2-(3,4-difluorophenyl)cyclopropyl)-6-methyl-2-(pyridin-2-yl)thieno[2,3-d]pyrimidin-4-amine] the IC50 was 4300 nM.
`CCc1nc(NCCCc2ccc(OC(F)(F)F)cc2)c2cc(C)sc2n1` [Example 34, 2-ethyl-6-methyl-N-(3-(4-(trifluoromethoxy)phenyl)propyl)thieno[2,3-d]pyrimidin-4-amine] showed an IC50 of 270 nM.
`FC(F)(F)Oc1ccc(CCCNc2nc(-c3ccccn3)nc3sccc23)cc1` [Example 35, 2-(pyridin-2-yl)-N-(3-(4-(trifluoromethoxy)phenyl)propyl)thieno[2,3-d]pyrimidin-4-amine] showed an IC50 of 2200 nM.
With `Cc1cc2c(NCCCc3ccc(OC(F)(F)F)cc3)nc(C(F)(F)F)nc2s1` [Example 36, 6-methyl-N-(3-(4-(trifluoromethoxy)phenyl)propyl)-2-(trifluoromethyl)thieno [2,3-d]pyrimidin-4-amine] the IC50 was 2100 nM.
`CCc1nc(NCCc2cccc(OC)c2)c2cc(C)sc2n1` [Example 37, 2-ethyl-N-(3-methoxyphenethyl)-6-methylthieno[2,3-d]pyrimidin-4-amine] was tested, and the IC50 was > 7900 nM.
With `Cc1cc2c(N[C@@H]3C[C@H]3c3ccc(F)c(F)c3)nc(-c3ccncn3)nc2s1` [Example 38, N-((1R,2S)-2-(3,4-difluorophenyl)cyclopropyl)-6-methyl-2-(pyrimidin-4-yl)thieno[2,3-d]pyrimidin-4-amine] the IC50 was 2000 nM.
`CCc1nc(NCCc2cccc([N+](=O)[O-])c2)c2cc(C)sc2n1` [Example 39, 2-ethyl-6-methyl-N-(3-nitrophenethyl)thieno [2,3-d]pyrimidin-4-amine] was tested, and the IC50 was > 8800 nM.
With `CCc1nc(NCCOc2ccc(OC)cc2)c2cc(C)sc2n1` [Example 40, 2-ethyl-N-(2-(4-methoxyphenoxy)ethyl)-6-methylthieno[2,3-d]pyrimidin-4-amine] the IC50 was 3600 nM.
`Cc1cc2c(N[C@@H]3C[C@H]3c3ccc(F)c(F)c3)nc(-c3ncccn3)nc2s1` [Example 41, N-((1R,2S)-2-(3,4-difluorophenyl)cyclopropyl)-6-methyl-2-(pyrimidin-2-yl)thieno[2,3-d]pyrimidin-4-amine] was tested, and the IC50 was > 10000 nM.
Work on `Cc1cc2c(N[C@@H]3C[C@H]3c3ccc(F)c(F)c3)nc(-c3nccs3)nc2s1` [Example 42, N-((1R,2S)-2-(3,4-difluorophenyl)cyclopropyl)-6-methyl-2-(thiazol-2-yl)thieno[2,3-d]pyrimidin-4-amine] yielded an IC50 of 8100 nM.
